Data on 4 molecules can be found in US20140186261A1, “ANTI-TUMOR AGENT AND ANTI-TUMOR KIT” (NIHON MEDI-PHYSICS CO., LTD., priority 2012, published 2014).

Like-named read-outs stand apart in the source and are kept apart here.

The format of data set [1] is in vivo, BALB/c nude mice.
Experimental: 5-FU was repeatedly intraperitoneally administered to BALB/c nude mice (male, 7-week old, about 25 g in body weight, obtained from Japan SLC, Inc.) at 25 mg/kg, 50 mg/kg, or 100 mg/kg once a day for 4 days. Body weight was measured at the 5th day from the first starting day of administration and later to determine the rate of body weight reduction. The rate of body weight reduction was calculated based on the following equation.
Body weight reduction rate(%)=[{(Body weight at day prior to the date of first 5-FU administration)−(Body weight measured after start of 5-FU administration)}/(Body weight at day prior to the date of first 5-FU administration)]×100
Saline was administered to a control group in place of 5-FU.
Data set [2] concerns Human large bowel cancer-derived HT29 cells. The data set is described as follows: Anti-tumor effect of 64Cu-ATSM and 5-FU in HT29 tumor-bearing mouse (tumor volume). The class given is in vivo, BALB/c nude mice. The note with it: HT29 tumor-bearing mice; 5-FU 25 mg/kg i.p. once a day x4 days; 64Cu-ATSM 37 MBq (74 MBq in Comparative Example 3) via tail vein at final day; measured to day 15; 6 mice. The method, then:
(§1) Human large bowel cancer-derived HT29 cells were purchased from ATCC and proliferated for use. […] At the final day of 5-FU administration, 37 MBq (1 mCi) of ^64Cu-ATSM was administered through the tail vein.
(§2) Cu-ATSM. The tumor size in mice was measured 2, 4, 8, 12, or 15 days after starting the administration of 5-FU. Cells obtained from the tumor removed at 2 days after the administration of ^64Cu-ATSM were subjected to the detection of apoptotic cells and CD133-positive (CD133+) cells using flow cytometry (Guava flow cytometry, from Millipore Corporation). The detection of apoptotic cells was performed using Annexin V (Mouse Anti-Human Annexin V FITC, AbD MCA2712F, from Serotec Co., Ltd.). The detection of CD133+cells was performed using an anti-CD133 antibody (CD133/1(A133)-PE, from Miltenyi Biotec K.K.).
The experiment was carried out in the same way as Example 2 except for administering saline in place of ^64Cu-ATSM.
The experiment was carried out in the same way as Example 2 except for administering saline in place of 5-FU.
Saline was administered in place of 5-FU. The dose of ^64Cu-ATSM was 74 MBq (2 mCi). The experiment was carried out in the otherwise same way as Example 2.
The volume of tumor was calculated from the size of tumor measured in Example 2 and Comparative Examples 1 to 3; the change thereof with time is shown in FIG. 1. […]

Data set [3] shares this test system. Briefly: Detection of apoptotic cells in removed HT29 tumor by flow cytometry (Annexin V). The note with it: tumor removed 2 days after 64Cu-ATSM administration, 5-FU 25 mg/kg x4 days, 64Cu-ATSM 37 or 74 MBq, 6 mice. Format: in vivo, BALB/c nude mice. As for the experimental part: as §1, §2
In FIG. 2, the results of percentages of apoptotic cells in the removed tumor are expressed in average and standard deviation for 6 mice.
For orientation: In flow cytometry, cells or beads pass a laser one at a time.

Data set [4] deals with CD133+ cells in HT29 tumor. Format: in vivo, BALB/c nude mice. The note with it: tumor removed 2 days after 64Cu-ATSM administration; 5-FU 25 mg/kg x4 days, 64Cu-ATSM 37 or 74 MBq; anti-CD133 flow cytometry; 6 mice. The method, then: as §1, §2
In FIG. 3, the results of percentages of CD133+cells in the removed tumor are expressed in average and standard deviation for 6 mice.

The subject of data set [5] is HT29 cells. The data set is described as follows: Anti-tumor effect of repeated administration of 64Cu-ATSM and 5-FU in HT29 tumor-bearing mouse (tumor volume). Format: in vivo, BALB/c nude mice. The note with it: HT29 tumor-bearing mice; two cycles (start day 1 and 25th day) of 5-FU 25 mg/kg i.p. x4 days and 64Cu-ATSM 37 MBq at final day; to day 34; 6 mice. As for the experimental part: The HT29 tumor-bearing model was prepared in the same way as Example 2; 1 week after the implantation of HT29 cells, 5-FU was repeatedly intraperitoneally administered at 25 mg/kg once a day for 4 days; and at the final day (4th day) of 5-FU administration, 37 MBq (1 mCi) of ^64Cu-ATSM was administered through the tail vein. The administration of 5-FU was again started at the 25th day from the start of 5-FU administration, with 25 mg/kg thereof repeatedly administered once a day for 4 days. At the final day of 5-FU administration, 37 MBq (1 mCi) of ^64Cu-ATSM was then administered through the tail vein. […] The tumor size in mice was measured 2, 4, 8, 12, 14, 16, 20, 24, 27, 31, or 34 days after starting the administration of 5-FU.
The experiment was carried out in the same way as Example 7 except for administering saline in place of ^64Cu-ATSM.
The experiment was carried out in the same way as Example 7 except for administering saline in place of 5-FU.
The volume of tumor was calculated from the size of tumor measured in Example 7 and Comparative Examples 6 and 7; the change thereof with time is shown in FIG. 5. In FIG. 5, the tumor volume at the day prior to the day of the first start of 5-FU administration was set to 100%, and the percentage based thereon was given. In FIG. 5, data are expressed in average and standard deviation for 6 mice.

In data set [6] the test system is HT29 cells. The data set is described as follows: Anti-tumor effect of 64Cu-ATSM and 6TG or PT in HT29 tumor-bearing mouse (tumor volume). Format: in vivo, BALB/c nude mice. The note with it: HT29 tumor-bearing mice; 6TG 12.5 mg/kg or PT 200 mg/kg i.p. once a day x4 days; 64Cu-ATSM 37 MBq via tail vein at final day (74 MBq alone in Comparative Example 3); to day 15; 6 mice. As for the experimental part: The HT29 tumor-bearing model was prepared in the same way as Example 2, and 1 week after the implantation of HT29 cells, 6TG was repeatedly intraperitoneally administered at 12.5 mg/kg once a day for 4 days. At the final day of 6TG administration, 37 MBq (1 mCi) of ^64Cu-ATSM was administered through the tail vein. […] The tumor size in mice was measured 2, 4, 8, 12, or 15 days after starting the administration of 6TG.
The experiment was carried out in the same way as Example 5 except for administering saline in place of ^64Cu-ATSM.
The HT29 tumor-bearing model was prepared in the same way as Example 2, and 1 week after the implantation of HT29 cells, PT was repeatedly intraperitoneally administered at 200 mg/kg once a day for 4 days. At the final day of PT administration, 37 MBq (1 mCi) of ^64Cu-ATSM was administered through the tail vein. […] The tumor size in mice was measured 2, 4, 8, 12, or 15 days after starting the administration of PT.
The experiment was carried out in the same way as Example 6 except for administering saline in place of ^64Cu-ATSM.
The volume of tumor was calculated from the size of tumor measured in Examples 5 and 6 and Comparative Examples 4 and 5; the change thereof with time is shown in FIG. 4. In FIG. 4, the tumor volume at the day prior to the day of the start of 6TG or PT administration was set to 100%, and the percentage based thereon was given. In FIG. 4, data are expressed in average and standard deviation for 6 mice. In addition, the results of Example 2 and Comparative Examples 1 to 3 were shown together in FIG. 4.

The next data set relates to CD133-positive cells. The note with it: Yoshii et al. (2010), Nucl. Med. Biol. 37, 395-404; cited from earlier work.
Data set [7] deals with CD133-positive cells in tumor. The note with it: Yoshii et al. (2011), Nucl. Med. Biol. 38, 151-157; cited from earlier work.
A further data set deals with tumor. The note with it: compared with 18FDG; Japanese Patent Laid-Open No. 2010-13380; cited from earlier work.
The nature of data set [8]: Study of dose of 6TG using nude mouse (rate of body weight reduction, death).
Experimental: 6TG was repeatedly intraperitoneally administered to BALB/c nude mice (male, 7-week old, about 25 g in body weight, obtained from Japan SLC, Inc.) at 12.5 mg/kg, 25 mg/kg, or 50 mg/kg once a day for 4 days. Body weight was measured at the 5th day from the first starting day of administration and later to determine the rate of body weight reduction. The rate of body weight reduction was calculated based on the following equation.
Body weight reduction rate(%)=[{(Body weight at day prior to the date of first 6TG administration)−(Body weight measured after start of 6TG administration)}/(Body weight at day prior to the date of first 6TG administration)]×100
Saline was administered to a control group in place of 6TG. In Table 2, they were expressed in average and standard deviation for 4 mice.
Data set [9] is described as follows: Study of dose of PT using nude mouse (rate of body weight reduction). The class given is in vivo, BALB/c nude mice. The note with it: for Rate of Body Weight Reduction (%): average ± SD, 4 mice.
Experimental: PT was repeatedly intraperitoneally administered to BALE/c nude mice (male, 7-week old, about 25 g in body weight, obtained from Japan SLC, Inc.) at 25, 50, 100, or 200 mg/kg once a day for 4 days. Body weight was measured at the 5th day from the first starting day of administration and later to determine the rate of body weight reduction. The rate of body weight reduction was calculated based on the following equation.
Body weight reduction rate(%)=[{(Body weight at day prior to the date of first PT administration)−(Body weight measured after start of PT administration)}/(Body weight at day prior to the date of first PT administration)]×100
Saline was administered to a control group in place of PT. In Table 3, they were expressed in average and standard deviation for 4 mice.

On to `O=c1[nH]cc(F)c(=O)[nH]1` [5-FU, 5-Fluorouracil], for which the death of mice result in data set [1] (5-FU 50 mg/kg i.p. once a day for 4 days) is on record as “died at the 10th or 11th day from administration”; in data set [1] (5-FU 100 mg/kg i.p. once a day for 4 days), “died at the 7th or 8th day from administration”. For the same molecule, in data set [2], the “tumor volume, change with time (FIG. 1; % of volume at day prior to start of 5-FU administration)” value is recorded as “did not suppress the proliferation of tumor”. Also, the “percentage of apoptotic cells in tumor (FIG. 2)” value in data set [3] was “apoptosis of tumor cells was confirmed”. Further, the “percentage of CD133+ cells in tumor (FIG. 3)” value in data set [4] is recorded as “can kill CD133+cells”. The “tumor volume, change with time (FIG. 5; % of volume at day prior to first start of 5-FU administration)” value in the data set with HT29 cells [5] is listed as “could hardly suppress the proliferation of tumor”.

“diacetyl-bis(N4-methylthiosemicarbazone) copper complex [^64Cu-ATSM]”: the “tumor volume, change with time (FIG. 1; % of volume at day prior to start of 5-FU administration)” value in data set [2] is recorded as “suppressed the proliferation of tumor depending on the dose thereof”. For the same molecule, in data set [3], the “percentage of apoptotic cells in tumor (FIG. 2)” value is recorded as “apoptosis of tumor cells was confirmed”. For the same molecule, in [4], the “percentage of CD133+ cells in tumor (FIG. 3)” value is given as “can kill CD133+cells”. Moreover, the “tumor volume, change with time (FIG. 4; % of volume at day prior to start of 6TG or PT administration)” value in the data set with HT29 cells [6] is listed as “could suppress the proliferation of tumor depending on the dose thereof”. The “tumor volume, change with time (FIG. 5; % of volume at day prior to first start of 5-FU administration)” value in the data set on HT29 cells [5] was “suppressed the proliferation of tumor depending on the dose thereof”. The “accumulation in CD133-positive cells” value with CD133-positive cells is “accumulates in CD133-positive cells”. For the same molecule, the “amount of CD133-positive cells in tumor and tumor size” value in [7] is on record as “decreased the amount of CD133-positive cells in tumor to shrink the tumor”. In the data set with tumor, the “sites of accumulation in tumor” value is reported as “accumulate in sites different from those for ^18FDG in tumor”.

As for `Nc1nc2nc[nH]c2c(=S)[nH]1` [6TG, 6-Thioguanine], the “tumor volume, change with time (FIG. 4; % of volume at day prior to start of 6TG or PT administration)” value with HT29 cells [6] is recorded as “could not suppress the proliferation of tumor”. Besides, the death of mice entry is reported as “died at the 13th to 15th day from administration” in data set [8] (6TG 25 mg/kg i.p. once a day for 4 days) and “died at the 6th to 8th day from administration” in data set [8] (6TG 50 mg/kg i.p. once a day for 4 days).

Turning to `Nc1nc2[nH]cc(CCc3ccc(C(=O)N[C@@H](CCC(=O)O)C(=O)O)cc3)c2c(=O)[nH]1` [PT, Pemetrexed], the “Rate of Body Weight Reduction (%)” value in [9] (PT 25 mg/kg/day i.p. once a day for 4 days, 5th Day) is on record as −8.42 ± 12.36%; in data set [9] (PT 25 mg/kg/day i.p. x4 days, 9th Day), −12.11 ± 13.3%; in data set [9] (PT 25 mg/kg/day i.p. x4 days, 12th Day) it was −10.94 ± 12.04%; in [9] (PT 25 mg/kg/day i.p. x4 days, 16th Day) it was −14.11 ± 11.25%; in data set [9] (PT 25 mg/kg/day i.p. x4 days, 18th Day), −15.38 ± 9.65%; in [9] (PT 50 mg/kg/day i.p. x4 days, 5th Day), −3.94 ± 7.7%. The “Rate of Body Weight Reduction (%)” value is −12.12 ± 5.33% in data set [9] (PT 50 mg/kg/day i.p. x4 days, 9th Day); −12.91 ± 7.21% in data set [9] (PT 50 mg/kg/day i.p. x4 days, 12th Day); −16.03 ± 8.57% in data set [9] (PT 50 mg/kg/day i.p. x4 days, 16th Day); −15.41 ± 11.86% in [9] (PT 50 mg/kg/day i.p. x4 days, 18th Day); −5.03 ± 8.95% in [9] (PT 100 mg/kg/day i.p. x4 days, 5th Day); −12.82 ± 9.29% in data set [9] (PT 100 mg/kg/day i.p. x4 days, 9th Day). The “Rate of Body Weight Reduction (%)” value in data set [9] (PT 100 mg/kg/day i.p. x4 days, 12th Day) was −16.86 ± 8.46%; in data set [9] (PT 100 mg/kg/day i.p. x4 days, 16th Day) it was −20.08 ± 9.11%; in [9] (PT 100 mg/kg/day i.p. x4 days, 18th Day), −21.05 ± 6.18%; in [9] (PT 200 mg/kg/day i.p. x4 days, 5th Day), −5.75 ± 9.93%; in data set [9] (PT 200 mg/kg/day i.p. x4 days, 9th Day) it was −15.25 ± 10.49%; in data set [9] (PT 200 mg/kg/day i.p. x4 days, 12th Day) it was −18.1 ± 9.64%. In addition, the “Rate of Body Weight Reduction (%)” value in [9] (PT 200 mg/kg/day i.p. x4 days, 16th Day) was −18.1 ± 9.64%; in data set [9] (PT 200 mg/kg/day i.p. x4 days, 18th Day), −17.19 ± 9.86%. Further, the “rate of body weight reduction” value in data set [9] (PT, all groups (25, 50, 100, 200 mg/kg once a day for 4 days), even at the 18th day) is reported as no more than 10%. In the data set with HT29 cells [6], the “tumor volume, change with time (FIG. 4; % of volume at day prior to start of 6TG or PT administration)” value is reported as “could not suppress the proliferation of tumor”.
